Laboratory results from patent US20180007899A1, “HERBICIDAL COMPOSITIONS COMPRISING OXYFLUORFEN AND HALOXYFOP” (Dow AgroSciences LLC, priority 2012, published 2018).

Legend:
Assay in all cases: Post-emergence field trial in onion, visual weed control
Format in all cases: in vivo
[1] = system: smallflower galinsoga (Galinsoga parviflora), GASPA; settings: 15 days after application
Description: (§1) Multiple post-emergence field trials were conducted under field conditions in Colombia, Peru and Ecuador. Trial sites were located in commercially grown fields of onion (Allium spp) using standard herbicide small plot research methodology. Post-emergence trial plot size varied from 0.4 to 2 meter (m)×5 to 25 m (width×length) with 4 replicates per treatment. The onion crop was grown using normal cultural practices for fertilization, seeding, watering and maintenance to ensure good growth of the crop and the weeds.
(§2) All treatments in the post-emergence field trials were applied using a backpack compressed carbon dioxide (CO2) sprayer with flat fan nozzles calibrated to apply 400 liters per hectare (L/ha) spray volume at approximately 35 pounds per square inch (psi) nozzle pressure. Commercially available products of oxyfluorfen (GOAL® 480SC 480 grams active ingredient per liter (g ai/L) and haloxyfop-methyl (VERDICT R® 42 g ai/L) were mixed in water at appropriate formulated product rates to achieve the desired rates based on a unit area of application (hectare). Treatments were rated at 7 to 31 days after application (DAA) as compared to the untreated control plants. Visual weed control was scored on a scale of 0 to 100 percent where 0 corresponds to no injury and 100 corresponds to complete kill.
(§3) All treatment results, both for the single product and mixtures, are an average of 4 replicates. The trial sites had naturally occurring populations of weeds. The weed spectrum included, but was not limited to, AMBEL, BIDPI, BRSRA, GASPA, ELEIN, LOLTE, POANN, and SETVE.
(§4) Colby's equation was used to determine the herbicidal effects expected from the mixtures (Colby, S. R. Calculation of the synergistic and antagonistic response of herbicide combinations. Weeds 1967, 15, 20-22.).
(§5) The following equation was used to calculate the expected activity of mixtures containing two active ingredients, A and B:
(§6) A=observed efficacy of active ingredient A at the same concentration as used in the mixture.
(§7) B=observed efficacy of active ingredient B at the same concentration as used in the mixture.

[2] = system: poison ryegrass (Lolium temulentum), LOLTE; settings: 15 days after application
Description: as §1, §2, §3, §4, §5, §6, §7

[3] = system: bristly foxtail (Setaria verticillata), SETVE; settings: 7 days after application
Description: as §1, §2, §3, §4, §5, §6, §7

[4] = system: birdsrape mustard (Brassica rapa), BRSRA
Description: as §1, §2, §3, §4, §5, §6, §7

[5] = system: hairy beggarticks (Bidens pilosa), BIDPI
Description: as §1, §2, §3, §4, §5, §6, §7

[6] = system: goosegrass (Eleusine indica), ELEIN; settings: 7 days after application
Description: as §1, §2, §3, §4, §5, §6, §7

[7] = system: annual bluegrass (Poa annua L.), POAAN; settings: 15 days after application
Description: as §1, §2, §3, §4, §5, §6, §7

[8] = system: common ragweed (Ambrosia artemisiifolia L.), AMBEL; settings: 15 days after application
Description: as §1, §2, §3, §4, §5, §6, §7

[9] = oxyfluorfen 0, haloxyfop-methyl 42 g ai/ha, foliar
[10] = 16 days after application, oxyfluorfen 0, haloxyfop-methyl 42 g ai/ha, foliar
[11] = 31 days after application, oxyfluorfen 0, haloxyfop-methyl 42 g ai/ha, foliar
[12] = oxyfluorfen 120 g ai/ha, haloxyfop-methyl 0, foliar
[13] = oxyfluorfen 240 g ai/ha, haloxyfop-methyl 0, foliar
[14] = oxyfluorfen 360 g ai/ha, haloxyfop-methyl 0, foliar
[15] = 16 days after application, oxyfluorfen 120 g ai/ha, haloxyfop-methyl 0, foliar
[16] = 16 days after application, oxyfluorfen 240 g ai/ha, haloxyfop-methyl 0, foliar
[17] = 16 days after application, oxyfluorfen 360 g ai/ha, haloxyfop-methyl 0, foliar
[18] = 31 days after application, oxyfluorfen 120 g ai/ha, haloxyfop-methyl 0, foliar
[19] = 31 days after application, oxyfluorfen 240 g ai/ha, haloxyfop-methyl 0, foliar
[20] = 31 days after application, oxyfluorfen 360 g ai/ha, haloxyfop-methyl 0, foliar

## COC(=O)C(C)Oc1ccc(Oc2ncc(C(F)(F)F)cc2Cl)cc1 (stereo not drawn) [Haloxyfop-methyl]
[1]; [9]
  Visual Control (%) Obs: 6%
[2]; [9]
  Visual Control (%) Obs: 4%
[3]; [9]
  Visual Control (%) Obs: 77%
[4]; [10]
  Visual Control (%) Obs: 0%
[4]; [11]
  Visual Control (%) Obs: 0%
[5]; [10]
  Visual Control (%) Obs: 0%
[5]; [11]
  Visual Control (%) Obs: 0%
[6]; [9]
  Visual Control (%) Obs: 6%
[7]; [9]
  Visual Control (%) Obs: 5%
[8]; [9]
  Visual Control (%) Obs: 6%

## CCOc1cc(Oc2ccc(C(F)(F)F)cc2Cl)ccc1[N+](=O)[O-] [Oxyfluorfen, 2-chloro-1-(3-ethoxy-4-nitrophenoxy)-4-(trifluoromethyl)benzene]
[1]; [12]
  Visual Control (%) Obs: 49%
[1]; [13]
  Visual Control (%) Obs: 47%
[1]; [14]
  Visual Control (%) Obs: 45%
[2]; [12]
  Visual Control (%) Obs: 21%
[2]; [13]
  Visual Control (%) Obs: 22%
[2]; [14]
  Visual Control (%) Obs: 22%
[3]; [14]
  Visual Control (%) Obs: 70%
[4]; [15]
  Visual Control (%) Obs: 70%
[4]; [16]
  Visual Control (%) Obs: 74%
[4]; [17]
  Visual Control (%) Obs: 85%
[4]; [18]
  Visual Control (%) Obs: 74%
[4]; [19]
  Visual Control (%) Obs: 79%
[4]; [20]
  Visual Control (%) Obs: 86%
[5]; [15]
  Visual Control (%) Obs: 49%
[5]; [16]
  Visual Control (%) Obs: 56%
[5]; [17]
  Visual Control (%) Obs: 69%
[5]; [18]
  Visual Control (%) Obs: 54%
[5]; [19]
  Visual Control (%) Obs: 61%
[5]; [20]
  Visual Control (%) Obs: 69%
[6]; [14]
  Visual Control (%) Obs: 47%
[7]; [12]
  Visual Control (%) Obs: 45%
[7]; [13]
  Visual Control (%) Obs: 45%
[7]; [14]
  Visual Control (%) Obs: 47%
[8]; [12]
  Visual Control (%) Obs: 21%
[8]; [13]
  Visual Control (%) Obs: 22%
[8]; [14]
  Visual Control (%) Obs: 22%
